This note sets out measurements from PMC6543040, “Structural and biochemical characterization of Rv0187, an O-methyltransferase from Mycobacterium tuberculosis” (Scientific Reports, 2019).

Series [1] has as its target T1, Rv0187 (Mycobacterium tuberculosis, UniProt O07431). Format: biochemical. Also on record: pLATE31-Rv0187 (C-terminal His6-tag).
In series [2] the target is T1, Rv0187. Put plainly: co-crystal structure, […] Å. In kind it is binding. On the set-up: C-terminal His6-tag after a TEV cleavage site (pLATE31-Rv0187-TEV).
The target in series [3] is T1, Rv0187. Put plainly: biochemical. Format: binding.
Series [4] deals with O=C(O)c1ccc(O)c(O)c1. Put plainly: purified protein. The note with it: SAM; Mg2+.
For series [5], the system named is O=C(O)/C=C/c1ccc(O)c(O)c1. The experiment in a line: purified protein. The note with it: SAM; Mg2+.
Series [6] has as its system COc1cc(C(=O)O)cc(O)c1O. Put plainly: purified protein. The conditions noted are these: SAM; Mg2+.
Series [7] concerns the molecule itself. The experiment in a line: SEC. On the technique in general: Size exclusion chromatography separates by hydrodynamic size, large species first.

T1 sequence (O07431 whole entry): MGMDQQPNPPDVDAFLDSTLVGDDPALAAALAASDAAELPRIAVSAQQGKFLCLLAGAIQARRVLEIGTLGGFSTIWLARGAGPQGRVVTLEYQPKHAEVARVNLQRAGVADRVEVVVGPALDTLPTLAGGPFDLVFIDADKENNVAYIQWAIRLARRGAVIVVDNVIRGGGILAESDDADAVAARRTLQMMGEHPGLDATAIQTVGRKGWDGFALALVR

With `O=Cc1ccc(O)c(O)c1` [DHA, 3,4-dihydroxy-benzaldehyde], the “in vitro methyltransfer assay, HPLC/LC-MS” value in series [1] is “DHA, dopamine and CA were preferentially methylated at the meta position”.
Still for that read-out and setting: to `O=C(O)c1cc(O)c(O)c(O)c1` [GA, gallic acid] belongs “PCA, 5OMeBA, and GA were more readily modified at the para-hydroxyl group”.
Regarding `Nc1ncnc2c1ncn2[C@@H]1O[C@H](CSCC[C@H](N)C(=O)O)[C@@H](O)[C@H]1O` [SAH, S-adenosyl-l-homocysteine], the “co-crystal structure, 1.64 Å” value in series [2] is “each subunit exhibits the unambiguous presence of a divalent metal ion and SAH”.
With `C[S+](CC[C@H](N)C(=O)[O-])C[C@H]1O[C@@H](n2cnc3c(N)ncnc32)[C@H](O)[C@@H]1O` (stereo partly drawn) [SAM, S-adenosyl-l-methionine], the Kd (in general, the constant that tells how readily two partners part at equilibrium) in series [3] was 9.3 ± 0.7 µM.
In the case of `NCCc1ccc(O)c(O)c1` [dopamine], the “in vitro methyltransfer assay, HPLC/LC-MS” value in series [1] is “DHA, dopamine and CA were preferentially methylated at the meta position”.
Consider `O=c1[nH]c(=O)n([C@@H]2O[C@H](CO)[C@@H](O)[C@H]2O)cc1O` [ho^5U, 5-hydroxyuridine], for which, in series [1], the “in vitro methyltransfer assay, HPLC/LC-MS” value was “methylation of 5-hydroxyuridine (ho^5U) yielded a single product, 5-methoxyuridine (mo^5U)”.
Consider `O=c1c(O)c(-c2ccc(O)c(O)c2)oc2cc(O)cc(O)c12` [quercetin], for which, in series [1], the “in vitro methyltransfer assay, HPLC/LC-MS” value is “Rv0187 was able to methylate flavonoids (luteolin and quercetin), although the precise methylation site could not be assigned”.
As to “Rv0187 (Mycobacterium tuberculosis H37Rv)”, the Michaelis-Menten constant (Km) (as a rule, the concentration of substrate that gives half-maximal velocity) in series [4] was determined as 150 ± 20 µM; in series [5] it was 490 ± 170 µM; in series [6] it was 30 ± 4 µM.

B1: Rv0187 fused with a C-terminal His6-tag (pLATE31-Rv0187 construct) (enzyme)
chain: MDQQPNPPDVDAFLDSTLVGDDPALAAALAASDAAELPRIAVSAQQGKFLCLLAGAIQARRVLEIGTLGGFSTIWLARGAGPQGRVVTLEYQPKHAEVARVNLQRAGVADRVEVVVGPALDTLPTLAGGPFDLVFIDADKENNVAYIQWAIRLARRGAVIVVDNVIRGGGILAESDDADAVAARRTLQMMGEHPGLDATAIQTVGRKGWDGFALALVR
notes: also called MTB Rv0187; C-terminal His6-tagged construct; not shown: His6, C-terminal, kept
Consider B1, for which, in series [7], the stoichiometry N (in general, a count of units in the complex or per binding partner) stood at 2.
